Measured values from patent publication US10287305B2, “Substituted piperidine compound and use thereof” (Takeda Pharmaceutical Company Limited, priority 2016, dated 2019).

Molecular target: human orexin type 2 receptor (hOX2R) (Homo sapiens (Human), UniProt O43614)
Assay: Measurement of orexin type 2 receptor agonist activity (Experimental Example 2-1, FLIPR TETRA, intracellular Ca2+)
Assay type: cell-based
Conditions: CHO dhfr- cells expressing hOX2R; for Emax: read-out: Emax (%); for Emax at 30 µM: value at 30 uM concentration, orexin B as full agonist = 100%
[1] = agonist activity, 10 nM human orexin B = 100%

Sequence of human orexin type 2 receptor (hOX2R) (O43614 whole entry): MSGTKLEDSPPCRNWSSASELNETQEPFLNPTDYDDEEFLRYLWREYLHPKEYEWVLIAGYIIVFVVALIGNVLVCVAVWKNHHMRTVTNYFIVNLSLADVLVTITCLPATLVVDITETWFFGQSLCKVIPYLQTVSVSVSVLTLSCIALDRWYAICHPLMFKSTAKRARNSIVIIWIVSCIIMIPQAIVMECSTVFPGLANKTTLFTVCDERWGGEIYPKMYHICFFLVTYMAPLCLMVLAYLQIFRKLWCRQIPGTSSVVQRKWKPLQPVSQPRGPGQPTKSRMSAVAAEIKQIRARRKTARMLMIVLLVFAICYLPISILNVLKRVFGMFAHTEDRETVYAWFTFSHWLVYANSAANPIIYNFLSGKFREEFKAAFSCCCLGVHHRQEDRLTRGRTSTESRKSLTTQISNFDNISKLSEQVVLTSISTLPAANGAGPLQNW

| SMILES | EC50 (FLIPR TETRA, Fluo-4AM) [nM] | Emax (FLIPR TETRA, Fluo-4AM) [%] | Emax at 30 µM [%] | EC50 [1] [nM] |
| --- | --- | --- | --- | --- |
| CCNC(=O)N1CCC[C@H](NS(C)(=O)=O)[C@@H]1CO[C@H]1CO[C@@H](c2ccccc2)OC1 (relative stereo) [Example 140, cis-N-ethyl-3-((methylsulfonyl)amino)-2-(((cis-2-phenyl-1,3-dioxan-5-yl)oxy)methyl)piperidine-1-carboxamide] | 390 | 92 | – | – |
| CC(=O)C(=O)N1CCC[C@H](NS(C)(=O)=O)[C@@H]1CO[C@H]1CC[C@@H](c2ccccc2)CC1 (relative stereo) [Example 177, N-(cis-2-(((cis-4-phenylcyclohexyl)oxy)methyl)-1-pyruvoylpiperidin-3-yl)methanesulfonamide] | 190 | 96 | – | – |
| CS(=O)(=O)CC(=O)N1CCC[C@H](NS(C)(=O)=O)[C@@H]1CO[C@H]1CC[C@@H](c2ccccc2)CC1 [Example 181, N-((2R,3S)-1-((methylsulfonyl)acetyl)-2-(((cis-4-phenylcyclohexyl)oxy)methyl)piperidin-3-yl)methanesulfonamide] | – | 89 | – | – |
| CC(=O)N1CCC[C@H](NS(C)(=O)=O)[C@@H]1CO[C@H]1CC[C@@H](c2ccccc2Cl)CC1 (relative stereo) [Example 334, N-(cis-1-acetyl-2-(((cis-4-(2-chlorophenyl)cyclohexyl)oxy)-methyl)piperidin-3-yl)methanesulfonamide] | 27 | 93 | – | – |
| CCOC(=O)N1CCC[C@H](NS(C)(=O)=O)[C@@H]1CO[C@H]1CC[C@@H](C(C)C)CC1 (relative stereo) [Example 42, ethyl cis-2-(((cis-4-isopropylcyclohexyl)oxy)methyl)-3-((methylsulfonyl)amino)piperidine-1-carboxylate] | – | – | 97 | – |
| CCOC(=O)N1CCC[C@H](NS(C)(=O)=O)[C@@H]1COC1CCN(c2ccccc2F)CC1 (relative stereo) [Example 228, ethyl cis-2-(((1-(2-fluorophenyl)piperidin-4-yl)oxy)methyl)-3-((methylsulfonyl)amino)piperidine-1-carboxylate] | 2100 | 89 | – | – |
| CS(=O)(=O)N[C@H]1CCCN(C(=O)C2(O)CC2)[C@H]1CO[C@H]1CC[C@@H](c2ccccc2)CC1 (relative stereo) [Example 176, N-(cis-1-((1-hydroxycyclopropyl)carbonyl)-2-(((cis-4-phenylcyclohexyl)oxy)methyl)piperidin-3-yl)methanesulfonamide] | 45 | 98 | – | – |
| CC(=O)N1CCC[C@H](NS(C)(=O)=O)[C@@H]1CO[C@H]1CC[C@@H](c2cccc(F)c2)CC1 [Example 147, N-((2R,3S)-1-acetyl-2-(((cis-4-(3-fluorophenyl)cyclohexyl)oxy)methyl)piperidin-3-yl)methanesulfonamide] | 10 | 100 | – | – |
| CS(=O)(=O)N[C@H]1CCCN(C(=O)C2CC2)[C@H]1CO[C@H]1CC[C@@H](c2ncccn2)CC1 (relative stereo) [Example 328, N-(cis-1-(cyclopropylcarbonyl)-2-(((cis-4-(pyrimidin-2-yl)cyclohexyl)oxy)methyl)piperidin-3-yl)methanesulfonamide] | 7100 | 72 | – | – |
| CS(=O)(=O)N[C@H]1CCCN(C(=O)CC2CC2)[C@H]1COC1CCN(c2ccccc2F)CC1 (relative stereo) [Example 226, N-(cis-1-(cyclopropylacetyl)-2-(((1-(2-fluorophenyl)piperidin-4-yl)oxy)methyl)piperidin-3-yl)methanesulfonamide] | 2200 | 86 | – | – |
| CC(C)OC(=O)N1CCC[C@H](NS(C)(=O)=O)[C@@H]1CO[C@H]1CC[C@@H](c2cccc(F)c2)CC1 [Example 264, isopropyl (2R,3S)-2-(((cis-4-(3-fluorophenyl)cyclohexyl)oxy)methyl)-3-((methylsulfonyl)amino)piperidine-1-carboxylate] | 21 | 91 | – | – |
| CC(=O)N1CCC[C@H](NS(C)(=O)=O)[C@@H]1CO[C@H]1CC[C@@H](c2cc(F)ccc2F)CC1 (relative stereo) [Example 198, N-(cis-1-acetyl-2-(((cis-4-(2,5-difluorophenyl)cyclohexyl)oxy)methyl)piperidin-3-yl)methanesulfonamide] | 56 | 92 | – | – |

Results, then the molecule that gave them:

| EC50 (FLIPR TETRA, Fluo-4AM) [nM] | Emax (FLIPR TETRA, Fluo-4AM) [%] | Emax at 30 µM [%] | EC50 [1] [nM] | SMILES |
| --- | --- | --- | --- | --- |
| 330 | 91 | – | – | CC(OC(=O)N1CCC[C@H](NS(=O)(=O)N(C)C)[C@@H]1COC1CCN(c2ncccn2)CC1)C(F)(F)F (relative stereo) [Example 316, 1,1,1-trifluoropropan-2-yl cis-3-((dimethylsulfamoyl)amino)-2-(((1-(pyrimidin-2-yl)piperidin-4-yl)oxy)methyl)piperidine-1-carboxylate] |
| 2400 | 94 | – | – | COC(=O)N1CCC[C@H](NS(C)(=O)=O)[C@@H]1CO[C@H]1CC[C@@H](c2ccn(C)n2)CC1 (relative stereo) [Example 154, methyl cis-2-(((cis-4-(1-methyl-1H-pyrazol-3-yl)cyclohexyl)oxy)methyl)-3-((methylsulfonyl)amino)piperidine-1-carboxylate] |
| 150 | 108 | – | – | CCNC(=O)N1CCC[C@H](NS(C)(=O)=O)[C@@H]1CO[C@H]1C[C@@H](c2ccc(C)cc2)C1 (relative stereo) [Example 192, cis-N-ethyl-2-(((cis-3-(4-methylphenyl)cyclobutyl)oxy)methyl)-3-((methylsulfonyl)amino)piperidine-1-carboxamide] |
| – | – | 96 | 61 | CS(=O)(=O)N[C@H]1CCCN(C(=O)C2COC2)[C@H]1CO[C@H]1CC[C@@H](c2ccccc2)CC1 (relative stereo) [Example 120, N-(cis-1-(oxetan-3-ylcarbonyl)-2-(((cis-4-phenylcyclohexyl)oxy)methyl)piperidin-3-yl)methanesulfonamide] |
| 350 | 95 | – | – | CC(=O)N(C)CC(=O)N1CCC[C@H](NS(C)(=O)=O)[C@@H]1CO[C@H]1CC[C@@H](c2ccccc2)CC1 (relative stereo) [Example 156, N-methyl-N-(2-(cis-3-((methylsulfonyl)amino)-2-(((cis-4-phenylcyclohexyl)oxy)methyl)piperidin-1-yl)-2-oxoethyl)acetamide] |
| 2.5 | 100 | – | – | CCNC(=O)N1CCC[C@H](NS(C)(=O)=O)[C@@H]1CO[C@H]1CC[C@@H](c2ccc(F)cc2F)CC1 (relative stereo) [Example 146, cis-2-(((cis-4-(2,4-difluorophenyl)cyclohexyl)oxy)methyl)-N-ethyl-3-((methylsulfonyl)amino)piperidine-1-carboxamide] |
| 2000 | 74 | – | – | CS(=O)(=O)N[C@H]1CCCN[C@H]1CO[C@H]1CC[C@@H](c2ccccc2C(F)F)CC1 [Example 320, N-((2R,3S)-2-(((cis-4-(2-(difluoromethyl)phenyl)cyclohexyl)-oxy)methyl)piperidin-3-yl)methanesulfonamide] |
| – | – | 92 | 370 | CC(C)[C@H]1CC[C@@H](OC[C@H]2[C@@H](NS(C)(=O)=O)CCCN2C(=O)C2CC(O)C2)CC1 (stereo partly drawn) [Example 92, N-((2R,3S)-1-((3-hydroxycyclobutyl)carbonyl)-2-(((cis-4-isopropylcyclohexyl)oxy)methyl)piperidin-3-yl)methanesulfona] |
